The text below walks through data of US7439035B1, “Method of identifying or characterizing a compound that modulates ribonuclease H activity” (McGill University, priority 2001, dated 2008).

Test [1] has as its target T1, HIV-1 RT associated RNase H (Human immunodeficiency virus type 1 group M subtype B, UniProt P04585).
T1 construct: final concentration of 2.5 nM of the p51/p66 RT heterodimer in the assay; made in house
Description: Gel electrophoretic RNase H assay, inhibition of HIV-1 RT associated RNase H. In kind it is biochemical. To be noted: 1.5 nM p51/p66 RT, 100 nM [32P]-RNA/DNA substrate, 37° C., densitometry of undegraded RNA; read-out: IC50 for BBNH obtained with the gel assay. From the text:
The gel electrophoretic assay used 5′-[^32P]-RNA of the sequence 5′-GAU CUG AGC CUG GGA GCU-3′ (SEQ ID NO: 7; identical to that of the FRET RNA, but lacking the 3′-fluorescein), prepared by the transfer of ^32P from [γ-^32P]-ATP in a reaction catalyzed by bacteriophage T4 polynucleotide kinase. This 5′[^32P]-RNA oligonucleotide was annealed to complementary unlabeled DNA of the sequence 5′-AGC TCC CAG GCT CAG ATC-3′ (SEQ ID NO: 8) to form the [^32P]-RNA/DNA hybrid duplex substrate. Aliquots of 100 μl of 50 mM Tris/HCl (pH 8.0, 37° C.), containing 60 mM KCl and 2.5 mM MgCl2, 1.5 nM p51/p66 RT and variable amounts of BBNH inhibitor were added to individual microtubes and incubated at 37° C. for 15 minutes. […] The extent of RNase H activity can be determined quantitatively by densitometric analysis of the time-dependent disappearance of the full-length RNA substrate and/or the appearance of the smaller degradation products. In this experiment, the bands corresponding to the undegraded 18 nucleotide 5′-[^32P]-RNA were quantified by densitometry, using the software UN-SCAN-IT (Silk Scientific, Orem, Utah). The IC50 values for BBNH inhibition of HIV-1 RT associated RNase H activity were calculated from plots of the residual undegraded 5′[^32P]-RNA vs. drug concentration.

The target in test [2] is T1, HIV-1 RT associated RNase H. Put plainly: FRET RNase H assay, inhibition of HIV-1 RT associated RNase H. As to conditions: 1.5 nM p51/p66 RT, 100 nM 3'-fluorescein-RNA/5'-DABCYL-DNA substrate, 37° C., 15 min preincubation; read-out: IC50 for BBNH obtained with the FRET assay. In kind it is biochemical. As for the experimental part:
Microplate assay protocol for the measurement of RNase H activity using the RNA/DNA hybrid duplex substrate. Reaction assay mixtures contained 5 μl of a stock solution of 2.5 μM RNA/DNA hybrid duplex substrate added to 85 μl of assay buffer (50 mM Tris, pH 8.0, 37° C., containing 60 mM KCl and 2.5 mM MgCl2), prepared in the wells of a 96-well fluorescence microtiter plate, and warmed to 37° C. using the temperature control of the SpectraMax Gemini XS microplate spectrofluorometer (Molecular Devices). Reactions were started by the addition of 5 μl of a solution of recombinant HIV-1 reverse transcriptase (usually providing a final concentration of 2.5 nM of the p51/p66 RT heterodimer in the assay, and mixing using the automatic mixing function of the microplate spectrofluorometer. The reverse transcriptase for use in this assay was prepared as described by Fletcher R S et al, Single step purification of HIV-1 recombinant wild type and mutant reverse transcriptase, Protein Expression and Purification 7:27-32, 1996. The increase in fluorescence signal resulting from the loss of FRET due to the enzymatic hydrolysis of the RNA strand was measured over suitable time intervals (ranging from 3 minutes to 60 minutes), at an excitation wavelength of 490 nm and an emission wavelength of 528 nm, using a cut-off filter of 515 nm. […]

Take `CC(C)(C)c1ccc(C(=O)NN=Cc2c(O)ccc3ccccc23)cc1` [BBNH, N-(4-tert-butylbenzoyl)-2-hydroxy-1-naphthaldehyde hydrazone]: the values for the IC50 in test [1] and in test [2] were 3 ± 1.2 µM and 2600 ± 500 nM, respectively.
